{
  "source": "patent US20110152214A1",
  "about": "“SILK POLYMER-BASED ADENOSINE RELEASE: THERAPEUTIC POTENTIAL FOR EPILEPSY” (TRUSTEES OF TUFTS COLLEGE, priority 2008, published 2011)",
  "key": {"fully kindled rats [1]": {"tested_on": "fully kindled rats", "assay": "Experiment 1: suppression of kindled seizures by polymer-based adenosine release", "format": "in vivo, rat", "from_the_text": "Experiment 1: Four days after surgery, the animals were stimulated unilaterally six times every second or third day with a Grass S-88 stimulator (1-ms square-wave pulses of 5 V at 50-Hz frequency for 10 s, 30-min interval between stimulations; these stimulations corresponded to about 350 μA, whereas the afterdischarge thresholds before kindling were in the range of 115 μA). Behavioral seizures were scored according to the scale of Racine (Racine, 1978). The electroencephalogram (EEG) was recorded for periods of 1 min before and 5 min after application of each stimulating pulse using a Nervus EEG monitoring system. Stimulations on each day were discontinued whenever a stage 5 seizure on that day was reached. Eventually, all animals reacted with a stage 5 seizure at the first (and then only) daily stimulation. After three stage 5 seizures elicited by the first stimulation on three subsequent kindling-days animals were considered to be fully kindled (i.e. reproducibility of stage 5 seizure activity after stimulation). […] Only animals that fulfilled these stringent kindling criteria were used for the subsequent experiments. Polymers were implanted into these fully kindled animals. Implant recipients received one test-stimulation each on day 4, 6, 10, 14, 18, and 21 after polymer implantation and were then subjected to histological analysis. […]"}, "rat kindling model [2]": {"tested_on": "rat kindling model", "assay": "Experiment 2a: kindling on days 4, 6, 8, 11 after implantation, then DPCPX test", "format": "in vivo", "conditions": "1 mg/kg, i.p., 30 min prior to stimulation, day twelve", "from_the_text": "Experiment 2: Polymer implantation (see below) was combined with electrode implantation (see above) in the same surgery. Experiment 2a: Kindling was initiated four days after polymer implantation with the animals receiving 6 kindling stimulations (1-ms square-wave pulses of 5 V at 50-Hz frequency for 10 sec, 30-min interval between stimulations) each on day 4, 6, 8, and 11 after implantation; this amounted to a total of 24 stimulations. […] Twenty-four (24) hr after this drug test all animals were stimulated again once before being sacrificed for histological analysis. Experiment 2b (FIG. 3): Kindling was initiated four days after polymer implantation with the animals receiving six kindling stimulations each on days 4, 5, 6, 7, and 8, after implantation; this amounted to a total of 30 stimulations. In these incompletely kindled adenosine-implant recipients further stimulations were suspended until adenosine release from the polymers had expired (from day eighteen onwards). Kindling stimulations were resumed on days 18, 19, 20, 21, and 22 after implantation (6 stimulations/day; total of 30 additional stimulations). Afterwards the animals were sacrificed for histological analysis. […]"}, "fully kindled rats [3]": {"tested_on": "fully kindled rats", "conditions": "Boison et al. 2002; Güttinger et al. 2005; Huber et al. 2001; cited from earlier work"}, "rat kindling model [4]": {"tested_on": "rat kindling model", "format": "in vivo", "method": "Anesthesia was induced with 3% isoflurane, 67% N2O, 30% O2 and maintained with 1.5% isoflurane, 68.5% N2O, 30% O2, while rats (N=22) were placed in a Kopf stereotactic frame. […]\nFour days after surgery, the animals were stimulated unilaterally six times every second or third day with a Grass S-88 stimulator (1-ms square-wave pulses of 5V at 50-Hz frequency for 10 sec; 30 min-interval between stimulations). Behavioral seizures were scored according to the scale of Racine (3(2) Neurosurg. 234-52 (1978)). […] The electroencephalogram (EEG) was recorded for periods of 1 min before and 5 min after application of each stimulating pulse using a Nervus EEG monitoring system. […]\nSeizure scores were determined after each stimulation according to the scale of Racine (1978). […]"}, "rat kindling model [5]": {"tested_on": "rat kindling model", "conditions": "Silver et al., 1991; cited from earlier work"}},
  "note": "Entries after “also recorded” stand apart in the source; their conditions may differ.",
  "data": [
    {"smiles": "OC[C@H]1O[C@@H](n2cnc3c(NC4CCCC4)nc(Cl)nc32)[C@H](O)[C@@H]1O", "note": "[CCPA, 2-chloro-N(6)-cyclopentyladenosine]", "values": [
      {"measurement": "seizure response to test stimulation", "setting": "fully kindled rats [1]; 3 mg/kg i.p., 30 min prior to test stimulation, before polymer implantation", "result": "complete seizure suppression"}
    ]},
    {"smiles": "CCCn1c(=O)c2[nH]c(C3CCCC3)nc2n(CCC)c1=O", "note": "[DPCPX, 8-cyclopentyl-1,3-dipropylxanthine]", "values": [
      {"measurement": "effect of DPCPX on seizure score in adenosine-releasing implant recipients", "setting": "rat kindling model [2]", "result": "failed to elicit control group-like seizures; also recorded: did not increase the seizure score; also recorded: failed to increase seizure scores"},
      {"measurement": "seizures elicited by DPCPX paired with kindling stimulations", "setting": "fully kindled rats [3]", "result": "readily elicits stage 5 seizures"},
      {"measurement": "seizure stage elicited in an ADO-polymer treated rat after DPCPX", "setting": "fully kindled rats [1]; 1 mg/kg, i.p., 30 min after injection, day three", "result": 5}
    ]},
    {"smiles": "Nc1ncnc2c1ncn2[C@@H]1O[C@H](CO)[C@@H](O)[C@H]1O", "note": "[adenosine]", "values": [
      {"measurement": "doses sufficient to suppress kindling", "setting": "rat kindling model [4]; focal infrahippocampal release, from Table 3", "result": "around 400 ng adenosine/day"},
      {"measurement": "tolerability of high doses, gross behavioral changes", "setting": "rat kindling model [4]; rat, in vivo", "result": "well tolerated"}
    ]},
    {"smiles": "NC(=O)N1c2ccccc2C=Cc2ccccc21", "note": "[carbamazepine]", "values": [
      {"measurement": "effect on kindling development / antiepileptogenesis", "setting": "rat kindling model [5]", "result": "did not affect kindling development during the drug-phase"}
    ]}
  ]
}
